Assay [1] concerns the target T1, PBP1b (Streptococcus pneumoniae, UniProt Q7CRA4). As to the kind of experiment: PBP1b inhibition, hydrolysis of thioester substrate analogue (residual activity, IC50). The format is biochemical. As for the experimental part:
The inhibitory activity of 26 compounds was tested in the assay[31] employing a thioester substrate analogue at a concentration of 500 and 50 µM (Table S1).
Residual activities were determined by the ability of a potential inhibitor to hinder the hydrolysis of substrate analogue thioester (2-((benzoyl-D-alanyl)thio)acetic acid) as already described. PBP1b, prepared according to literature[31] (0.8 µM), was incubated with potential inhibitor (final concentration 500 µM) in 10 mM sodium phosphate buffer (pH = 7.0) in the presence of 100 mM D-alanine, 0.01 mg/mL BSA, and 0.01% Triton-X-100 for 60 min at 25 °C. After preincubation, the 5,5′-dithiobis-(2-nitrobenzoic acid) (DTNB) and thioester were added to each well to initiate the reaction and to obtain a final concentration of 1 mM and 5 mM, respectively. The final volume of the reaction was 150 µL. The initial rate of thioester hydrolysis was determined by measuring the absorbance at 412 nm for 30 min using a microtiter 96-well plate and Biotek Synergy H4 Hybrid microplate reader. The same assay was performed in the absence of an inhibitor. […] All experiments were run in triplicate. The ratio of the rate of reaction with inhibitor to the rate of reaction without compound expressed as a percentage gives the (RA [%] = ((vi – b)/(vo – b)) * 100, where b is the blank value for the initial rate of spontaneous hydrolysis of the thioester in the presence of the potential inhibitor and in the absence of PBP1b). The IC50 values were determined by measuring the reaction rates at seven different inhibitor concentrations.

A further assay has as its system S. aureus (ATCC 29213). As to the kind of experiment: Antimicrobial testing, broth microdilution (MIC). The format is cell-based. The following applies: Staphylococcus aureus, ATCC29213; S. aureus ATCC 29213, 20 h at 35 °C. As to the method: (§1) Antimicrobial testing was carried out by the broth microdilution method in 96-well plate format following the CLSI guidelines and European Committee for Antimicrobial Susceptibility Testing recommendations. Bacterial suspension of specific bacterial strain equivalent to 0.5 McFarland turbidity standard was diluted with cation-adjusted Mueller Hinton broth to obtain a final inoculum of 10^5 CFU/mL. Compounds dissolved in DMSO and inoculum were mixed together and incubated for 20 h at 35 °C. After incubation the minimal inhibitory concentration (MIC) values were determined by visual inspection as the lowest dilution of compounds showing no turbidity. The MICs were determined against S. aureus (ATCC 29213) and E. coli (ATCC 25922) bacterial strains. Tetracycline was used as a positive control on every assay plate.

The subject of the next assay is E. coli (ATCC 25922). As to the kind of experiment: Antimicrobial testing, broth microdilution (MIC). The format is cell-based. The settings on record: Escherichia coli, ATCC25922; E. coli ATCC 25922, 20 h at 35 °C. As for the experimental part: as §1
In assay [2] the target is T1, PBP1b. As to the kind of experiment: LC-MS/MS covalent labelling of PBP1b. In kind it is binding. The settings on record: 450-fold excess of compound, 45 °C, 2 h. As to the method: Further experimental study of 2-formylbenzeneboronic acid 29 and 30 was performed to characterise their binding.
The measurements were preformed analogously to those reported in Kollár et al. and Petri et al.[68]^,[69] The protein stock solution (20.0 µL and 37.0 µM) was diluted with buffer solution (20.0 µL; pH 7.0; 20 mM Hepes, 100 mM NaCl, 1 mM EDTA, and 10% glycerol), then the stock solution of the inhibitor (0.66 µL, 500 mM in DMSO) was added. The sample was incubated at 45 °C for 120 min and then subjected to LC-MS/MS measurements. The molecular weights of the conjugates of PBP1b were identified using a Triple TOF 5600+ hybrid Quadrupole-TOF LC/MS/MS system (Sciex, Singapore, Woodlands) equipped with a DuoSpray IonSource coupled with a Shimadzu Prominence LC20 UFLC (Shimadzu, Kyoto, Japan) system consisting of binary pump, an autosampler and a thermostated column compartment.
Data acquisition and processing were performed using Analyst TF software version 1.7.1 (AB Sciex Instruments, Redwood City, CA). Chromatographic separation was achieved on a Merck BIOshell^TM 400 Å Protein C18 (75 mm × 2.1mm, 3.4 µm, 400 Å) HPLC column. Sample was eluted in gradient elution mode using solvent A (0.1% formic acid in water) and solvent B (0.1% formic acid in ACN). […]

Setting [3] is: 1 h, pH 7, residual activity at 500 µM inhibitor, 60 min preincubation; read-out: RA [%] @500 µM.
[4] abbreviates: PBP1b 0.8 µM, 60 min preincubation at 25 °C, thioester substrate; read-out: IC50.
The mark [5] stands for this setting: 1 h, pH 7, Table S1, 50 µM, 60 min preincubation; read-out: RA%@50µM PBP1b S.pneumoniae, 60 min preincubation.
The mark [6] stands for this setting: 1 h, pH 7, Table S1, 500 µM, 60 min preincubation; read-out: RA%@500µM PBP1b S.pneumoniae, 60 min preincubation.

In brackets after ≈: the same amount, converted by molar mass. Several values for one entry are separate records, joined by “and”; a condition that tells them apart may be missing. Identical values can stand only once. Like-named read-outs stand apart in the source and are kept apart here.

For `O=Cc1ccccc1NCc1ccccc1B(O)O` [Compound 33], the “PBP1b inhibition (in words)” value on PBP1b [1] is “slight activity in the millimolar concentration range”. In addition, the activity at 500 µM at PBP1b [1] (setting [3]) came to 56.9 ± 0.8%.
As for `CC1(C)OB(C(CC(=O)N(Cc2ccccc2)Cc2ccccc2)NC(=O)c2ccccc2F)OC1(C)C` (stereo not shown) [Compound 18], the activity at 500 µM on PBP1b [1] (setting [3]) is 66.3 ± 7%.
Regarding `O=C(NCB(O)O)c1ccccc1F` [Compound 9, reference compound], the IC50 on PBP1b [1] (setting [4]) was 28.2 ± 7.4 µM. In addition, the “free energy gain in complex formation (ΔGdc)” value at PBP1b [1] (from IC50 accepted as approximation to Ki) was -6.2 kcal/mol. Also, the MIC against S. aureus (ATCC 29213) and with E. coli (ATCC 25922) was more than 250 µM in each case.
On to `CC(NC(=O)c1ccc(B(O)O)cc1)C1CCC(F)(F)CC1` (stereo not shown) [Compound 1], for which the activity at 50 µM on PBP1b [1] (setting [5]) was 78.8 ± 2.7%. In addition, the activity at 500 µM at PBP1b [1] (setting [6]) was less than 50%. In addition, the IC50 at PBP1b [1] (setting [4]) came to 127 ± 14.4 µM. Further, the MIC against S. aureus (ATCC 29213) and with E. coli (ATCC 25922) was more than 250 µM in each case.
On to `O=C(C1Cc2cccc(F)c2O1)N1CCC(B(O)O)C1` (stereo not shown) [Compound 4], for which the activity at 500 µM at PBP1b [1] (setting [3]) turned out to be 60.9 ± 7.6%.
Regarding `O=Cc1cc(C(F)(F)F)ccc1B(O)O` [Compound 30], at PBP1b [1], the “PBP1b inhibition (in words)” value is given as “inhibitors of PBP1b” and the time-dependent inhibition entry is given as “No time-dependent inhibition”. Further, on PBP1b [1] (setting [4]), the IC50 stood at 200 ± 15.3 µM. The MIC with S. aureus (ATCC 29213) was more than 250 µM. Also, the MIC against E. coli (ATCC 25922) is more than 250 µM. Also, the “labelling of PBP1b in MS/MS experiments” value on PBP1b [2] was “single labelling of PBP1b was observed”.
As to `O=Cc1ccccc1B(O)O` [Compound 29], at PBP1b [1], the “PBP1b inhibition (in words)” value is reported as “inhibitors of PBP1b” and the time-dependent inhibition result was “No time-dependent inhibition”. For the same molecule, the IC50 at PBP1b [1] (setting [4]) was 119 ± 6 µM. Besides, the MIC against S. aureus (ATCC 29213) was more than 250 µM. In the assay with E. coli (ATCC 25922), the MIC was more than 250 µM. For the same molecule, the “labelling of PBP1b in MS/MS experiments” value on PBP1b [2] was “single labelling of PBP1b was observed”.
On to `Cn1cc(C(=O)NCB(O)O)nn1` [Compound 8], for which the IC50 on PBP1b [1] (setting [4]) is ~213 µM and 213 µM. Besides, the MIC with S. aureus (ATCC 29213) and in the assay on E. coli (ATCC 25922) was more than 250 µM each time.
In the case of `CC1(C)OB(c2ccccc2CNc2ccccc2C=O)OC1(C)C` [Compound 32], the “PBP1b inhibition (in words)” value on PBP1b [1] was “does not inhibit PBP1b at 1 mM concentration”. Further, at PBP1b [1] (setting [3]), the activity at 500 µM was found to be 96.6 ± 0.6%.
With `CCC(=O)Nc1cccc(C(=O)N2CCC(B(O)O)C2)c1` (stereo not shown) [Compound 5], the activity at 500 µM on PBP1b [1] (setting [3]) turned out to be 85.7 ± 9.5%.
As for `O=C(NC(CC(=O)N(Cc1ccccc1)Cc1ccccc1)B(O)O)c1ccccc1F` (stereo not shown) [Compound 19], the activity at 500 µM at PBP1b [1] (setting [3]) turned out to be 68.9 ± 8.2%. The MIC in the assay with S. aureus (ATCC 29213) is 62.5 µM (≈ 27.1 µg/mL); against E. coli (ATCC 25922), more than 250 µM.
`Cn1cc(C(=O)N2CCC(B(O)O)C2)nn1` (stereo not shown) [Compound 6]: the activity at 500 µM on PBP1b [1] (setting [3]) was 81.1 ± 1.6%.
The same measure, in the same setting: with `Cc1cc(C(=O)N2CCC(B(O)O)C2)ccn1` (stereo not shown) [Compound 3] the figure was 86.3 ± 8.4%.
For `C[C@H]1[C@H](NC(=O)/C(=N\OC(C)(C)C(=O)O)c2csc(N)n2)C(=O)N1S(=O)(=O)O` [Aztreonam, reference compound], the activity at 500 µM on PBP1b [1] (1 h, pH 7, read-out: RA [%] @500 µM) was found to be 1.4 ± 0.1%. The IC50 at PBP1b [1] (IC50, PBP1b 0.8 µM, 60 min preincubation at 25 °C, thioester substrate) was less than 0.8 µM.
In the case of `O=C(c1ccn(-c2cccc([N+](=O)[O-])c2)n1)N1CCC(B(O)O)C1` (stereo not shown) [Compound 2], the activity at 50 µM at PBP1b [1] (setting [5]) was determined as 83.5 ± 0.1%. Besides, the activity at 500 µM at PBP1b [1] (setting [6]) is less than 50%. Moreover, at PBP1b [1] (setting [4]), the half-inhibitory concentration (IC50) was found to be 206 ± 21.7 µM. In addition, the minimum inhibitory concentration (MIC) was 125 µM (≈ 41.3 µg/mL) with S. aureus (ATCC 29213) and more than 250 µM in the assay with E. coli (ATCC 25922).
In the case of `CC1(C)OB(C(CC(=O)Nc2ccccc2)NC(=O)c2ccccc2F)OC1(C)C` (stereo not shown) [Compound 17], the activity at 500 µM on PBP1b [1] (setting [3]) turned out to be 48.1 ± 2%.
In the case of `CC(=O)c1ccccc1B(O)O` [Compound 31], the “PBP1b inhibition (in words)” value on PBP1b [1] was “inactive”. Besides, the activity at 500 µM at PBP1b [1] (1 h, pH 7; read-out: RA [%] @500 µM) amounted to 96.7%.

One may read the IC50 as the concentration that gives 50% inhibition. In general, MIC refers to the least concentration at which growth counts as inhibited. A low value points to greater potency.
